According to ChEMBL document CHEMBL1201862, “PubChem BioAssay data set” (2004):
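These data come from cells grown in 96-well plates and exposed to compound for 48 hours at five concentrations. The concentration for 50% growth inhibition is given as GI50.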 Calls of active or inactive are those of the source. Cut-off read from the data, not from the text of the source: active = GI50 up to about 1.1 µM and inactive = higher.

Assays:
Test in all cases: DTP human tumour cell line panel, 48 h
A498 = system: A498
A549 = system: A549
COLO 205 = system: COLO 205
HOP-92 = system: HOP-92
HT-29 = system: HT-29
M14 = system: M14
NCI-H226 = system: NCI-H226
OVCAR-4 = system: OVCAR-4
OVCAR-5 = system: OVCAR-5
RPMI-8226 = system: RPMI-8226
SF-295 = system: SF-295
SK-MEL-28 = system: SK-MEL-28
SK-MEL-5 = system: SK-MEL-5
SN12C = system: SN12C
SNB-75 = system: SNB-75
SW-620 = system: SW-620
MOLT-4 = system: MOLT-4
OVCAR-3 = system: OVCAR-3
SF-539 = system: SF-539
UACC-62 = system: UACC-62

Measured: GI50

O=C(NC1C(O)C(O)C(CO)OC1n1cc(F)c(=O)[nH]c1=O)OCc1ccccc1 (centres undefined)
inactive: A498 > 100 µM | A549 > 100 µM | COLO 205 > 100 µM | HOP-92 > 100 µM | HT-29 > 100 µM | M14 > 100 µM | NCI-H226 > 100 µM | OVCAR-4 > 100 µM | OVCAR-5 > 100 µM | RPMI-8226 > 100 µM | SF-295 > 100 µM | SK-MEL-28 > 100 µM | SK-MEL-5 > 100 µM | SN12C > 100 µM | SNB-75 > 100 µM | SW-620 > 100 µM

CCN(CC)CCN(C(=O)c1ccc(F)cc1)c1ccccc1N
inactive: A498 > 10 µM | A549 > 10 µM | COLO 205 > 10 µM | HT-29 > 10 µM | M14 > 10 µM | MOLT-4 > 10 µM | NCI-H226 3.72 µM | OVCAR-3 > 10 µM | OVCAR-4 > 10 µM | OVCAR-5 > 10 µM | RPMI-8226 > 10 µM | SF-295 > 10 µM | SF-539 > 10 µM | SK-MEL-28 > 10 µM | SK-MEL-5 > 10 µM | SN12C > 10 µM | SNB-75 > 10 µM | SW-620 > 10 µM | UACC-62 > 10 µM

COc1ccc(OC)c2c3c(ccc12)C(c1ccccc1)OC3=O (centres undefined)
inactive: A498 81.7 µM | A549 85.5 µM | COLO 205 54 µM | HT-29 58.3 µM | M14 > 100 µM | MOLT-4 32.9 µM | NCI-H226 > 100 µM | OVCAR-3 25.8 µM | OVCAR-4 70.1 µM | OVCAR-5 > 100 µM | RPMI-8226 24.9 µM | SF-295 52.6 µM | SK-MEL-28 52.4 µM | SK-MEL-5 47.5 µM | SN12C 94.2 µM | SNB-75 38.7 µM | SW-620 85.1 µM | UACC-62 > 100 µM

CC(C)=CCc1c(OC(=O)c2c(C)cc(O)cc2O)cc(CO)c(CO)c1O
inactive: A498 17.3 µM | A549 6.43 µM | COLO 205 17.9 µM | HOP-92 17.7 µM | HT-29 21.2 µM | M14 20.8 µM | MOLT-4 16.3 µM | NCI-H226 34 µM | OVCAR-4 16 µM | OVCAR-5 20.4 µM | SF-295 17.2 µM | SF-539 18.6 µM | SK-MEL-28 18.5 µM | SK-MEL-5 14.8 µM | SN12C 18.5 µM | SNB-75 12.6 µM | SW-620 > 10 µM | UACC-62 15.2 µM

Nc1ncnc2c1ncn2C=C=CCO
inactive: A498 > 100 µM | COLO 205 > 100 µM | HOP-92 > 100 µM | HT-29 > 100 µM | M14 > 100 µM | MOLT-4 > 100 µM | NCI-H226 > 100 µM | OVCAR-3 > 100 µM | OVCAR-4 > 100 µM | OVCAR-5 > 100 µM | RPMI-8226 > 100 µM | SF-295 > 100 µM | SK-MEL-28 > 100 µM | SK-MEL-5 > 100 µM | SN12C > 100 µM | SNB-75 > 100 µM | SW-620 > 100 µM

COc1ccc(-c2nnc(-c3nsc4ccccc34)o2)cc1
inactive: A549 78.5 µM | COLO 205 > 100 µM | HOP-92 43.2 µM | HT-29 67.6 µM | M14 80.9 µM | OVCAR-3 28.3 µM | OVCAR-4 65.9 µM | OVCAR-5 > 100 µM | RPMI-8226 19.3 µM | SF-539 31.2 µM | SK-MEL-28 > 100 µM | SK-MEL-5 61.9 µM | SN12C 59.4 µM | SNB-75 17.5 µM | SW-620 > 100 µM | UACC-62 > 100 µM
